Reference: article PMC12148371 (iScience, 2025)
Where two headings read alike, the source gives them in different places.

How the values were obtained:
pseudotyped EBOV = assay: microbe, parasite or virus in culture; format: cell-based, Zaire ebolavirus; details: for IC50: read-out: EBOV (IC50)
in vitro = details: human
pseudotyped BDBV = assay: microbe, parasite or virus in culture; format: cell-based, Bundibugyo ebolavirus; details: Bundibugyo virus, TZM-bl, read-out: BDBV (IC50)
[1] = biological target: GP-RBD-Fc (without the glycan cap and MLD) (Bundibugyo ebolavirus (key resources table); called EBOV in the results); assay: BLI; pH 6.1
[2] = biological target: GP-RBD-Fc (without the glycan cap and MLD) (Bundibugyo ebolavirus (key resources table); called EBOV in the results); assay: BLI; pH 7.4
infectious EBOV = assay: microbe, parasite or virus in culture; format: cell-based, Ebola Zaire virus; details: Zaire ebolavirus, read-out: Infectious EBOV (IC50)
[3] = tested on: NPC1 binding to Ebola GP-RBD; set-up: species or system Ebola virus
pseudotyped A-MLV = format: cell-based, amphotropic murine leukemia virus
pseudotyped VSV = format: cell-based, vesicular stomatitis virus

| Compound | IC50 (pseudotyped EBOV; Zaire ebolavirus, TZM-bl) | IC50 (pseudotyped EBOV) | CC50 (in vitro) | IC50 (pseudotyped BDBV) | Kd [1] | Kd [2] | inhibition potency against EBOV, in words (pseudotyped EBOV) | IC50 (infectious EBOV) | NPC1 binding remaining (A488+ cells) in presence of competitor [3] | neutralization of pseudotyped A-MLV (pseudotyped A-MLV) | neutralization of pseudotyped VSV (pseudotyped VSV) |
| --- | --- | --- | --- | --- | --- | --- | --- | --- | --- | --- | --- |
| CC1(C)CC(NC(=O)C(=O)Nc2ccc(C(F)(F)F)c(F)c2)CC(C)(C)N1 [DY-III-226] | 11.1 µM | 11.2 ± 0.8 µM | 48.4 ± 5.4 µM | 10.6 ± 0.5 µM | – | – | – | – | – | – | – |
| CC1(C)CC(NC(=O)C(=O)Nc2ccc(Br)cc2)CC(C)(C)N1 [NBD-557] | 19.8 ± 1.7 µM | – | – | 10.6 ± 1.8 µM | – | – | – | – | – | – | – |
| human soluble CD4-183 (sCD4-183) two-domain protein (domain or fragment) | – | – | – | – | 0.36 µM | 52 µM | – | – | – | – | – |
| CNCc1ccc2c(c1)C[C@H](CNC(=N)N)[C@H]2NC(=O)C(=O)Nc1ccc(Cl)c(F)c1 [BNM-III-170] | > 30 µM | – | – | – | – | – | largely reduced | – | – | – | – |
| CC1(C)CC(NC(=O)C(=O)Nc2ccc(C(C)(C)C)cc2)CC(C)(C)N1 [Compd N9] | 9.51 ± 1.6 µM | – | > 100 µM | 17.6 ± 2.7 µM | – | – | – | 9.46 µM | – | – | – |
| CC1(C)CC(NC(=O)C(=O)Nc2ccc(C(C)(C)C)c(F)c2)CC(C)(C)N1 [DY-III-228] | 1.98 ± 0.5 µM | – | 20.6 ± 2.6 µM | 2.25 ± 0.2 µM | – | – | – | 0.56 µM | 30.90% | – | – |
| CC1(C)CC(NC(=O)C(=O)Nc2cc(F)c(Cl)c(F)c2)CC(C)(C)N1 [DY-III-227] | 12.1 µM | 12.5 ± 1.5 µM | 68.3 ± 4.3 µM | 12.1 ± 0.7 µM | – | – | – | – | – | – | – |
| CC1(C)CC(NC(=O)C(=O)Nc2ccc(Cl)c(F)c2)CC(C)(C)N1 [JRC-II-191] | 9.52 ± 1.4 µM | – | 43.2 ± 6 µM | 9.99 ± 1.1 µM | – | – | – | 5.25 µM | 24.29% | did not neutralize | did not neutralize |
| CC1(C)CC(NC(=O)C(=O)Nc2ccc(Cl)cc2)CC(C)(C)N1 [NBD-556] | 18.2 ± 1 µM | – | 67.7 ± 7.3 µM | 16.8 ± 2.1 µM | – | – | – | 18.8 µM | 28.36% | – | – |
